Results taken from PubChem BioAssay AID2060609 (Molecular Pharmacology Branch, DTP, NCI, 2025).
pIC50: −log10 of the molar value. Each block holds one compound with its values, some of them ahead of it.

Test system: 855422-203-R-J1-PDC complex spheroids, viability
Test: Anticancer human tumor 855422-203-R-J1-PDC patient-derived bladder carcinoma cell line growth inhibition [CLK]
Settings: for pIC50: curve of first compound; for viability, T/C: stronger effect = lower value
Outline: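 Multi-cell-type spheroids combined patient-derived tumor cells with HUVEC endothelial cells and human mesenchymal stem cells. Paired agents were dosed in half-log steps down from about clinical Cmax, or from 10 microM where Cmax was unknown.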

[1] = second compound 0.0316 µM, first compound 0.0316 µM
[2] = second compound 0.0316 µM, first compound 0.1 µM
[3] = second compound 0.0316 µM, first compound 0.316 µM
[4] = second compound 0.0316 µM, first compound 1 µM
[5] = second compound 0.0316 µM, first compound 3.16 µM
[6] = second compound 0.0316 µM, first compound 10 µM
[7] = second compound 0.1 µM, first compound 0.0316 µM
[8] = second compound 0.1 µM, first compound 0.1 µM
[9] = second compound 0.1 µM, first compound 0.316 µM
[10] = second compound 0.1 µM, first compound 1 µM
[11] = second compound 0.1 µM, first compound 3.16 µM
[12] = second compound 0.1 µM, first compound 10 µM
[13] = second compound 0.316 µM, first compound 0.0316 µM
[14] = second compound 0.316 µM, first compound 0.1 µM
[15] = second compound 0.316 µM, first compound 0.316 µM
[16] = second compound 0.316 µM, first compound 1 µM
[17] = second compound 0.316 µM, first compound 3.16 µM
[18] = second compound 0.316 µM, first compound 10 µM
[19] = second compound 1 µM, first compound 0.0316 µM
[20] = second compound 1 µM, first compound 0.1 µM
[21] = second compound 1 µM, first compound 0.316 µM
[22] = second compound 1 µM, first compound 1 µM
[23] = second compound 1 µM, first compound 3.16 µM
[24] = second compound 1 µM, first compound 10 µM
[25] = second compound 3.16 µM, first compound 0.0316 µM
[26] = second compound 3.16 µM, first compound 0.1 µM
[27] = second compound 3.16 µM, first compound 0.316 µM
[28] = second compound 3.16 µM, first compound 1 µM
[29] = second compound 3.16 µM, first compound 3.16 µM
[30] = second compound 3.16 µM, first compound 10 µM
[31] = second compound 10 µM, first compound 0.0316 µM
[32] = second compound 10 µM, first compound 0.1 µM
[33] = second compound 10 µM, first compound 0.316 µM
[34] = second compound 10 µM, first compound 1 µM
[35] = second compound 10 µM, first compound 3.16 µM
[36] = second compound 10 µM, first compound 10 µM
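Further: spheroids exposed to drugs for seven days before readout.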
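Wherever viability, T/C is given: 100% = DMSO vehicle control wells.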

pIC50 (second compound 0.0316 µM): > 9.02
pIC50 (second compound 0.1 µM): > 9.02
pIC50 (second compound 0.316 µM): > 9.02
pIC50 (second compound 1 µM): > 9.02
pIC50 (second compound 3.16 µM): > 9.02
pIC50 (second compound 10 µM): > 9.02
SMILES: CC(C)CC(NC(=O)C(Cc1ccccc1)NC(=O)c1cnccn1)B(O)O (stereo not drawn) + CNC(=O)c1ccc(Nc2nc(OC3CCCC3)c3c(-c4ccc5nc(C)oc5c4)c[nH]c3n2)c(OC)c1
viability, T/C (second compound 0.0316 µM, first compound 0.000949 µM): 4.13%
viability, T/C (second compound 0.0316 µM, first compound 0.003 µM): 0.22%
viability, T/C (second compound 0.0316 µM, first compound 0.00949 µM): 0.2%
viability, T/C (second compound 0.0316 µM, first compound 0.03 µM): 0.21%
viability, T/C (second compound 0.0316 µM, first compound 0.0949 µM): 0.17%
viability, T/C (second compound 0.0316 µM, first compound 0.3 µM): 0.18%
viability, T/C (second compound 0.1 µM, first compound 0.000949 µM): 2.95%
viability, T/C (second compound 0.1 µM, first compound 0.003 µM): 0.2%
viability, T/C (second compound 0.1 µM, first compound 0.00949 µM): 0.18%
viability, T/C (second compound 0.1 µM, first compound 0.03 µM): 0.17%
viability, T/C (second compound 0.1 µM, first compound 0.0949 µM): 0.17%
viability, T/C (second compound 0.1 µM, first compound 0.3 µM): 0.49%
viability, T/C (second compound 0.316 µM, first compound 0.000949 µM): 2.47%
viability, T/C (second compound 0.316 µM, first compound 0.003 µM): 0.17%
viability, T/C (second compound 0.316 µM, first compound 0.00949 µM): 0.13%
viability, T/C (second compound 0.316 µM, first compound 0.03 µM): 0.13%
viability, T/C (second compound 0.316 µM, first compound 0.0949 µM): 0.12%
viability, T/C (second compound 0.316 µM, first compound 0.3 µM): 0.54%
viability, T/C (second compound 1 µM, first compound 0.000949 µM): 1.78%
viability, T/C (second compound 1 µM, first compound 0.003 µM): 0.13%
viability, T/C (second compound 1 µM, first compound 0.00949 µM): 0.13%
viability, T/C (second compound 1 µM, first compound 0.03 µM): 0.1%
viability, T/C (second compound 1 µM, first compound 0.0949 µM): 0.14%
viability, T/C (second compound 1 µM, first compound 0.3 µM): 0.1%
viability, T/C (second compound 3.16 µM, first compound 0.000949 µM): 1.68%
viability, T/C (second compound 3.16 µM, first compound 0.003 µM): 0.13%
viability, T/C (second compound 3.16 µM, first compound 0.00949 µM): 0.65%
viability, T/C (second compound 3.16 µM, first compound 0.03 µM): 0.08%
viability, T/C (second compound 3.16 µM, first compound 0.0949 µM): 0.1%
viability, T/C (second compound 3.16 µM, first compound 0.3 µM): 0.11%
viability, T/C (second compound 10 µM, first compound 0.000949 µM): 1.83%
viability, T/C (second compound 10 µM, first compound 0.003 µM): 0.15%
viability, T/C (second compound 10 µM, first compound 0.00949 µM): 0.13%
viability, T/C (second compound 10 µM, first compound 0.03 µM): 0.12%
viability, T/C (second compound 10 µM, first compound 0.0949 µM): 0.28%
viability, T/C (second compound 10 µM, first compound 0.3 µM): 0.12%

pIC50 (second compound 0.0316 µM): 5.18
pIC50 (second compound 0.1 µM): 5.37
pIC50 (second compound 0.316 µM): > 7.50
pIC50 (second compound 1 µM): > 7.50
pIC50 (second compound 3.16 µM): > 7.50
pIC50 (second compound 10 µM): > 7.50
SMILES: CC1(C)CCC(CN2CCN(c3ccc(C(=O)NS(=O)(=O)c4ccc(NCC5CCOCC5)c([N+](=O)[O-])c4)c(Oc4cnc5[nH]ccc5c4)c3)CC2)=C(c2ccc(Cl)cc2)C1 + CNC(=O)c1ccc(Nc2nc(OC3CCCC3)c3c(-c4ccc5nc(C)oc5c4)c[nH]c3n2)c(OC)c1
viability, T/C [1]: 128%
viability, T/C [2]: 118%
viability, T/C [3]: 116%
viability, T/C [4]: 125%
viability, T/C [5]: 173%
viability, T/C [6]: 3.47%
viability, T/C [7]: 54.1%
viability, T/C [8]: 68.9%
viability, T/C [9]: 62.4%
viability, T/C [10]: 75.5%
viability, T/C [11]: 69.2%
viability, T/C [12]: 2.06%
viability, T/C [13]: 20.6%
viability, T/C [14]: 23.1%
viability, T/C [15]: 28.9%
viability, T/C [16]: 20.9%
viability, T/C [17]: 20.5%
viability, T/C [18]: 3.1%
viability, T/C [19]: 21.3%
viability, T/C [20]: 18.3%
viability, T/C [21]: 19.3%
viability, T/C [22]: 27.2%
viability, T/C [23]: 23.3%
viability, T/C [24]: 3.87%
viability, T/C [25]: 22.6%
viability, T/C [26]: 24.9%
viability, T/C [27]: 19.5%
viability, T/C [28]: 22.9%
viability, T/C [29]: 19.1%
viability, T/C [30]: 6.53%
viability, T/C [31]: 17.3%
viability, T/C [32]: 19.6%
viability, T/C [33]: 19.3%
viability, T/C [34]: 19.4%
viability, T/C [35]: 19.3%
viability, T/C [36]: 4.56%

pIC50 (second compound 0.0316 µM): 5.63
pIC50 (second compound 0.1 µM): 5.97
pIC50 (second compound 0.316 µM): > 7.50
pIC50 (second compound 1 µM): > 7.50
pIC50 (second compound 3.16 µM): > 7.50
pIC50 (second compound 10 µM): > 7.50
SMILES: CC1COCCN1c1cc(C2(S(C)(=N)=O)CC2)nc(-c2ccnc3[nH]ccc23)n1 (stereo not drawn) + CNC(=O)c1ccc(Nc2nc(OC3CCCC3)c3c(-c4ccc5nc(C)oc5c4)c[nH]c3n2)c(OC)c1
viability, T/C [1]: 101%
viability, T/C [2]: 95.5%
viability, T/C [3]: 103%
viability, T/C [4]: 111%
viability, T/C [5]: 31.3%
viability, T/C [6]: 11.1%
viability, T/C [7]: 61.3%
viability, T/C [8]: 65%
viability, T/C [9]: 57.3%
viability, T/C [10]: 52.4%
viability, T/C [11]: 18.6%
viability, T/C [12]: 11.6%
viability, T/C [13]: 23.3%
viability, T/C [14]: 22%
viability, T/C [15]: 23.2%
viability, T/C [16]: 15.2%
viability, T/C [17]: 11.8%
viability, T/C [18]: 9.36%
viability, T/C [19]: 22.3%
viability, T/C [20]: 20.9%
viability, T/C [21]: 24.7%
viability, T/C [22]: 17.8%
viability, T/C [23]: 12.2%
viability, T/C [24]: 6.79%
viability, T/C [25]: 22.9%
viability, T/C [26]: 20.1%
viability, T/C [27]: 18.5%
viability, T/C [28]: 20%
viability, T/C [29]: 10.8%
viability, T/C [30]: 6.49%
viability, T/C [31]: 18.1%
viability, T/C [32]: 18.4%
viability, T/C [33]: 21%
viability, T/C [34]: 20.2%
viability, T/C [35]: 13.6%
viability, T/C [36]: 7.4%

pIC50 (second compound 0.0316 µM): < 5.00
pIC50 (second compound 0.1 µM): 5.32
pIC50 (second compound 0.316 µM): > 7.50
pIC50 (second compound 1 µM): > 7.50
pIC50 (second compound 3.16 µM): > 7.50
pIC50 (second compound 10 µM): > 7.50
SMILES: O=C(c1cc(Cc2n[nH]c(=O)c3ccccc23)ccc1F)N1CCN(C(=O)C2CC2)CC1 + CNC(=O)c1ccc(Nc2nc(OC3CCCC3)c3c(-c4ccc5nc(C)oc5c4)c[nH]c3n2)c(OC)c1
viability, T/C [1]: 117%
viability, T/C [2]: 100%
viability, T/C [3]: 111%
viability, T/C [4]: 98.1%
viability, T/C [5]: 112%
viability, T/C [6]: 82.5%
viability, T/C [7]: 58.6%
viability, T/C [8]: 69.4%
viability, T/C [9]: 63.6%
viability, T/C [10]: 47.4%
viability, T/C [11]: 57.2%
viability, T/C [12]: 45.1%
viability, T/C [13]: 20.3%
viability, T/C [14]: 21.5%
viability, T/C [15]: 21.1%
viability, T/C [16]: 23.7%
viability, T/C [17]: 21.9%
viability, T/C [18]: 23.8%
viability, T/C [19]: 24.4%
viability, T/C [20]: 21.6%
viability, T/C [21]: 21.1%
viability, T/C [22]: 28.1%
viability, T/C [23]: 22.1%
viability, T/C [24]: 18.5%
viability, T/C [25]: 23.3%
viability, T/C [26]: 22.3%
viability, T/C [27]: 21.6%
viability, T/C [28]: 19.9%
viability, T/C [29]: 21.3%
viability, T/C [30]: 23.4%
viability, T/C [31]: 18.5%
viability, T/C [32]: 18%
viability, T/C [33]: 17.9%
viability, T/C [34]: 20%
viability, T/C [35]: 19.9%
viability, T/C [36]: 19.5%
